Results on 26 compounds are retold here after ChEMBL document CHEMBL1201862, “PubChem BioAssay data set” (2004).

Among the test systems are XF498; DMS-114; SNB-78; LXFL 529; DMS-273; DLD-1; KM-20L2; HOP-18; RXF 631.
Holding throughout (assay): inhibition of tumour cell growth, NCI panel, 48 h

Each structure is given as a SMILES string.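 Where inhibition never reached the appropriate level, the endpoint shown equals the highest concentration tested. Otherwise, values were interpolated linearly from a five-concentration, 48-hour dose response in 96-well plates. The concentration for 50% growth inhibition is given as GI50.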 Active and inactive are the calls of the source. Rule as the data show it: active = GI50 up to about 1.1 µM and inactive = higher.

Take `COC(=O)c1cc(OC(C)=O)c2c(OC)ccc(OC)c2c1`: the GI50 in the assay with XF498, in the assay on DMS-114, with SNB-78, in the assay with LXFL 529, in the assay on DMS-273 and in the assay with DLD-1 was > 100 µM (inactive) each time. Moreover, the GI50 with KM-20L2 is > 100 µM (inactive).

Turning to `CC(C)=Cc1cc(C(=O)NCCNC(=O)c2cc(C=C(C)C)nc(NC#N)n2)nc(NC#N)n1`, the GI50 in the assay with XF498, in the assay with DMS-114, with LXFL 529, in the assay with HOP-18 and in the assay on KM-20L2 was > 100 µM (inactive) throughout.

As to `CSc1nc2nc(C(O)C(O)C(O)CO)cnc2c(=O)[nH]1` (stereo not given), the GI50 in the assay on XF498, with DMS-114, with SNB-78, in the assay on LXFL 529, in the assay on DMS-273 and with DLD-1 was > 100 µM (inactive) throughout. Moreover, in the assay with KM-20L2, the GI50 is > 100 µM (inactive).

Consider `CC1=NN(C(=O)c2ccccc2O)C(=O)/C1=C/c1cccc([N+](=O)[O-])c1`, for which the GI50 with DMS-114 was 1.66 µM (inactive); in the assay with SNB-78, > 100 µM (inactive); in the assay on LXFL 529, 0.451 µM (active); with DLD-1, 0.459 µM (active); with KM-20L2, 15.6 µM (inactive).

With `CN(C)CC1CCC(CN(C)C)C(=O)C1=O` (stereo not given), the GI50 is 2.54 µM (inactive) in the assay with XF498; 6.62 µM (inactive) in the assay on DMS-114; 1.67 µM (inactive) in the assay on LXFL 529; 1.5 µM (inactive) in the assay on HOP-18; 15.8 µM (inactive) in the assay with DMS-273; 3.05 µM (inactive) with DLD-1. In addition, in the assay on KM-20L2, the GI50 is 16.4 µM (inactive).

For the compound `COC(=O)/C(=N\NC(N)=S)C(C(=O)OC)C(=O)C(=O)Nc1ccc(C)cc1` (stereo not given), the GI50 in the assay on XF498, with DMS-114, with RXF 631, in the assay with SNB-78, with LXFL 529 and in the assay with HOP-18 was > 100 µM (inactive) each time. Further, the GI50 in the assay on DMS-273, with DLD-1 and with KM-20L2 was > 100 µM (inactive) each time.

Consider `Cc1[nH]nc2c1C(=O)C=C(N(CCO)c1ccccc1)C2=O`, for which the GI50 in the assay on DMS-114, with SNB-78, in the assay with LXFL 529, in the assay on HOP-18, in the assay with DMS-273 and in the assay on DLD-1 was > 100 µM (inactive) throughout.

Turning to `CC(=O)C1=CSC2[C@H](NC(=O)Cc3ccccc3)C(=O)N2C1C(=O)OC(c1ccccc1)c1ccccc1` (stereo not given in full), the GI50 with XF498 was > 100 µM (inactive); with DMS-114 it was 84.3 µM (inactive); in the assay on RXF 631 it was > 100 µM (inactive); in the assay on SNB-78 it was > 100 µM (inactive); with LXFL 529 it was > 100 µM (inactive); in the assay on DMS-273, 67.9 µM (inactive). In addition, in the assay on DLD-1, the GI50 was > 100 µM (inactive).

`Cc1ccc(C2=C(c3ccccc3)C(=O)C(c3ccccc3)=C2c2ccc(C)cc2)cc1`: the GI50 in the assay with XF498 was 35.3 µM (inactive); in the assay on SNB-78, 31.6 µM (inactive); with LXFL 529, 68.7 µM (inactive); in the assay on HOP-18 it was > 100 µM (inactive); in the assay with DLD-1 it was 41.2 µM (inactive); with KM-20L2, 45.8 µM (inactive).

In the case of `CC(=O)NNc1nc(C)c(C(/C=C/c2ccc(Cl)cc2)=N/NC(=S)NN)s1`, the GI50 with XF498, with DMS-114, with RXF 631, in the assay with SNB-78, with LXFL 529 and in the assay on HOP-18 was > 100 µM (inactive) each time. Besides, the GI50 with DMS-273, in the assay on DLD-1 and in the assay on KM-20L2 was > 100 µM (inactive) each time.

`COc1cc(C(=O)Nc2cccc3ccccc23)c(Br)c(OC)c1OC`: the GI50 in the assay on DMS-114 is 30.7 µM (inactive); in the assay on RXF 631, > 100 µM (inactive); with LXFL 529, 31.1 µM (inactive); in the assay on HOP-18, 4.33 µM (inactive); in the assay with DLD-1, > 100 µM (inactive); in the assay on KM-20L2, > 100 µM (inactive).

`CC(C)=CC(=O)Cc1nc2cc(C)c(C)cc2[nH]c1=O`: the GI50 with RXF 631, with SNB-78, with LXFL 529, in the assay on HOP-18, in the assay with DMS-273 and in the assay with DLD-1 was > 100 µM (inactive) in each case. In the assay with KM-20L2, the GI50 is > 100 µM (inactive).

With `Sc1nnc(COc2ccc(Cl)cc2)[nH]1`, the GI50 with DMS-114, in the assay with RXF 631, with SNB-78, with LXFL 529, in the assay on DMS-273 and with DLD-1 was > 100 µM (inactive) each time. In addition, the GI50 with KM-20L2 is > 100 µM (inactive).

Consider `CC(Oc1ccc(OCC2CCCCC2)cc1)C(=O)NCCO` (stereo not given), for which the GI50 in the assay with DMS-114 is 39.8 µM (inactive); in the assay with SNB-78, > 100 µM (inactive); in the assay on LXFL 529, > 100 µM (inactive); in the assay with HOP-18 it was > 100 µM (inactive); in the assay on DMS-273, > 100 µM (inactive); with DLD-1, > 100 µM (inactive).

Take `CCOC(=O)Cn1c(=O)n(C)c(=O)c2c1ncn2Cc1ccccc1`: the GI50 was 98.2 µM (inactive) with XF498; > 100 µM (inactive) in the assay on DMS-114; > 100 µM (inactive) in the assay on SNB-78; > 100 µM (inactive) in the assay on LXFL 529; > 100 µM (inactive) with DMS-273; > 100 µM (inactive) in the assay with DLD-1. In the assay with KM-20L2, the GI50 was > 100 µM (inactive).

For the compound `CCOC(=O)NC(=O)c1cn(CCN2CCN(C(=O)CCCCCCCCCCNc3ncnc4c3ncn4C3OC(CO)C(O)C3O)CC2)c(=O)[nH]c1=O` (stereo not given), the GI50 with XF498, in the assay with DMS-114, with RXF 631, with SNB-78, in the assay with LXFL 529 and with DLD-1 was > 100 µM (inactive) throughout. In the assay on KM-20L2, the GI50 was > 100 µM (inactive).

With `CCOC(=O)C(/C(=N/NC(=O)OC)C(=O)Nc1ccc(C(C)=O)cc1)c1cnc2ccccc2n1` (stereo not given), the GI50 in the assay with XF498, in the assay on DMS-114, with RXF 631, in the assay with SNB-78, with LXFL 529 and in the assay on HOP-18 was > 100 µM (inactive) each time. Further, the GI50 in the assay with DLD-1 and in the assay on KM-20L2 was > 100 µM (inactive) in each case.

Take `O=C(CCc1n[nH]c(=S)o1)Nc1ccccc1C(F)(F)F`: the GI50 with DMS-114, in the assay on RXF 631, in the assay on SNB-78, in the assay on LXFL 529, in the assay with HOP-18 and in the assay with DMS-273 was > 100 µM (inactive) each time. Further, the GI50 in the assay with DLD-1 and in the assay on KM-20L2 was > 100 µM (inactive) in each case.

Regarding `COc1ccc(/C=N\O[Si](C)(C)C(C)(C)C)cc1O[Si](C)(C)C(C)(C)C`, the GI50 in the assay with XF498 is 18.4 µM (inactive); in the assay on DMS-114, 18.5 µM (inactive); in the assay on RXF 631, 21.1 µM (inactive); in the assay on SNB-78, 19.3 µM (inactive); with LXFL 529, 16.1 µM (inactive); in the assay on HOP-18 it was 15.3 µM (inactive). Further, the GI50 in the assay with DMS-273 is 19.3 µM (inactive); in the assay with DLD-1, 17.9 µM (inactive); with KM-20L2, 28.8 µM (inactive).

For `OCCCCn1cnc2c(O)ncnc21`, the GI50 in the assay on DMS-114, in the assay on SNB-78, in the assay with LXFL 529, with HOP-18, in the assay on DLD-1 and with KM-20L2 was > 100 µM (inactive) each time.

In the case of `C=C(C)[C@@H]1CC=C(CO)CC1` [PERILLYL ALCOHOL], the GI50 with XF498 is 123 µM (inactive); in the assay on DMS-114 it was 124 µM (inactive); with RXF 631 it was 565 µM (inactive); with SNB-78, 200 µM (inactive); in the assay on LXFL 529 it was 668 µM (inactive); in the assay with DLD-1 it was 220 µM (inactive). The GI50 in the assay on KM-20L2 is 265 µM (inactive).

For `O=C1CCN(CCC(F)(F)C(F)(F)C(F)(F)C(F)(F)F)C(=S)N1`, the GI50 in the assay on XF498, in the assay with DMS-114, in the assay on SNB-78, in the assay on LXFL 529, with DMS-273 and in the assay with KM-20L2 was > 100 µM (inactive) throughout.

Consider `COC(=O)c1cc(C)c(C)c2c1NC(=O)CNC2=O`, for which the GI50 in the assay with XF498, in the assay with DMS-114, in the assay with SNB-78, with LXFL 529, with DMS-273 and in the assay with DLD-1 was > 100 µM (inactive) throughout. Also, the GI50 in the assay with KM-20L2 was > 100 µM (inactive).

Regarding `Cn1c2c(c3ccccc31)CCN(CCCN1CCN(c3cccc(Cl)c3)CC1)C2=O`, the GI50 with XF498 was 10.4 µM (inactive); with DMS-114 it was 14.2 µM (inactive); in the assay with RXF 631, 24.7 µM (inactive); with LXFL 529, 16.2 µM (inactive); with HOP-18, 22.9 µM (inactive); in the assay with DMS-273, 24.1 µM (inactive). Also, the GI50 is 23 µM (inactive) in the assay with DLD-1 and 2.87 µM (inactive) with KM-20L2.

In the case of `COc1cc(C(=O)O)cc2c1[nH]c1ccccc12` [MUKOEIC ACID], the GI50 in the assay with DMS-114, with SNB-78, in the assay on LXFL 529, in the assay on DMS-273, with DLD-1 and in the assay with KM-20L2 was > 25 µM (inactive) each time.

With `CC1OC(=O)N(CCCC=C2SCCCS2)C1=O` (stereo not given), the GI50 in the assay on XF498, in the assay with DMS-114, with SNB-78, in the assay with LXFL 529, in the assay on HOP-18 and in the assay on DMS-273 was > 100 µM (inactive) in each case. Moreover, the GI50 in the assay on KM-20L2 was > 100 µM (inactive).
